Measurements taken from ChEMBL document CHEMBL4364288, “Discovery of carbazole derivatives as novel allosteric MEK inhibitors by pharmacophore modeling and virtual screening” (Eur J Med Chem, 2019).

Key:
Homo sapiens [1] = species on record: Homo sapiens; settings: at 20 µM
Description: Inhibition of GST-tagged MEK1/ERK2 (unknown origin) cascading pathway assessed as reduction in ERK2 phosphorylation at 20 uM incubated for 2 hrs by HTRF assay relative to control

Sf21 [2] = settings: Homo sapiens, at 20 µM
Description: Inhibition of recombinant N-terminal GST-tagged human BRAF (433-726 residues) expressed in baculovirus infected sf21 insect cells/recombinant human full length N-terminal GST-tagged MEK1 expressed in Escherichia coli cascading pathway assessed as reduction in MEK1 phosphorylation at 20 uM incubated for 2 hrs by HTRF assay relative to control

HEK293 = experiment: cells; format: ADME, cell-based; settings: Homo sapiens, HEK293, 72 h
[3] = biological target: Dual specificity mitogen-activated protein kinase kinase 1 (Homo sapiens) (UniProt Q02750); experiment: Inhibition of recombinant full length GST-tagged human MEK1 expressed in baculovirus infected sf9 insect cells at 20 uM measured after 30 to 90 mins by HTRF based Lanthascreen Eu kinase binding assay relative to AZD6244
A-375 = experiment: cells; format: functional, cell-based; settings: Homo sapiens, A-375, 72 h
Description: Antiproliferative activity against human A375 cells assessed as cell viability incubated for 72 hrs by cell titer-glo luminescent cell viability assay (Rvb = > 100 uM)

Sf21 [4] = settings: Homo sapiens, at 2 µM
Description: Inhibition of recombinant N-terminal GST-tagged human BRAF (433-726 residues) expressed in baculovirus infected sf21 insect cells/recombinant human full length N-terminal GST-tagged MEK1 expressed in Escherichia coli cascading pathway assessed as reduction in MEK1 phosphorylation at 2 uM incubated for 2 hrs by HTRF assay relative to control

A549 = experiment: cells; format: functional, cell-based; settings: Homo sapiens, A549, 72 h
[5] = Inhibition of GST-tagged MEK1/ERK2 (unknown origin) cascading pathway assessed as reduction in ERK2 phosphorylation incubated for 2 hrs by HTRF assay relative to control; set-up: species or system Homo sapiens
HL-60 = experiment: cells; format: functional, cell-based; settings: Homo sapiens, HL-60, 72 h
Homo sapiens [6] = species on record: Homo sapiens; settings: at 2 µM
Description: Inhibition of GST-tagged MEK1/ERK2 (unknown origin) cascading pathway assessed as reduction in ERK2 phosphorylation at 2 uM incubated for 2 hrs by HTRF assay relative to control

[7] = biological target: Dual specificity mitogen-activated protein kinase kinase 1 (Homo sapiens) (UniProt Q02750); experiment: Inhibition of recombinant full length GST-tagged human MEK1 expressed in baculovirus infected sf9 insect cells at 2 uM measured after 30 to 90 mins by HTRF based Lanthascreen Eu kinase binding assay relative to AZD6244
[8] = Inhibition of BRAF/MEK1 (unknown origin) cascading pathway assessed as reduction in MEK1 phosphorylation incubated for 2 hrs in presence of 300 uM ATP by HTRF assay; set-up: species or system Homo sapiens
[9] = Inhibition of BRAF/MEK1 (unknown origin) cascading pathway assessed as reduction in MEK1 phosphorylation incubated for 2 hrs in presence of 100 uM ATP by HTRF assay; set-up: species or system Homo sapiens

Dual specificity mitogen-activated protein kinase kinase 1 (Homo sapiens), sequence (Q02750 whole entry): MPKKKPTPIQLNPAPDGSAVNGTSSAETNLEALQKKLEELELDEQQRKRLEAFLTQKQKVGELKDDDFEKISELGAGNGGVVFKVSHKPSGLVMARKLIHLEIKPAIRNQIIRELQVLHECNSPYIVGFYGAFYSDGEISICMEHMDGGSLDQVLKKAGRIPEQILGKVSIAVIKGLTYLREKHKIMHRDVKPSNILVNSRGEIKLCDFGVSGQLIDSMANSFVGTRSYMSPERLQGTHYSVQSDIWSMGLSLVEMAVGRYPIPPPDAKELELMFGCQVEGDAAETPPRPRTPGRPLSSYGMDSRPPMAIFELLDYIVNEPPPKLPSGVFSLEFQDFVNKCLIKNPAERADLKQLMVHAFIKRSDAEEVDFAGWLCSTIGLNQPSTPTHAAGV

SMILES | inhibition (Homo sapiens [1]) [%] | IC50 (A-375) [µM] | IC50 (A549) [µM] | IC50 (HL-60) [µM] | inhibition (Sf21 [2]) [%] | IC50 (HEK293) [µM] | further results
Cc1ccc(S(=O)(=O)Nc2cc(SCC(=O)O)c(O)c3ccccc23)cc1 | 32 | 7.7 | 21.6 | 17.2 | 56.1 | 8.9 | inhibition [3]: 90.3%; inhibition (Sf21 [4]): 4.4%; IC50 [5]: > 160 µM; inhibition (Homo sapiens [6]): 3.9%; inhibition [7]: 32.1%
Cc1ccc(S(=O)(=O)Nc2cc(SCC(=O)O)c(O)c3c2[nH]c2ccccc23)cc1 | 35.6 | 14.7 | 12.8 | 26.3 | 43.7 | > 100 | –
CC(=O)Nc1ccc(S(=O)(=O)Nc2cc(SCC(=O)O)cc3c2[nH]c2ccccc23)cc1 | 27.7 | – | – | – | 44.2 | – | –
CC(=O)Nc1cccc(S(=O)(=O)Nc2cc(OCc3nnc(C)o3)cc3c2[nH]c2ccccc23)c1 | -10 | – | – | – | 29.5 | – | –
COc1cc(/C=C2\C(=O)NN(c3ccc(I)cc3)C2=O)ccc1OC(C)=O | 35 | – | – | – | 57 | – | inhibition [3]: 60.1%; inhibition (Sf21 [4]): 6.3%; IC50 [5]: 63.1 µM; inhibition (Homo sapiens [6]): 5.1%; inhibition [7]: 11.9%
N#CC(=C(/N)Sc1ccccc1N)/C(C#N)=C(\N)Sc1ccccc1N | 80.9 | 1.1 | 32.2 | – | 87.4 | – | inhibition (Sf21 [4]): 41.7%; inhibition (Homo sapiens [6]): 26.9%
CCOC(=O)CSc1cc(NS(=O)(=O)c2ccc(NC(C)=O)cc2)c2[nH]c3ccccc3c2c1 | 21.8 | – | – | – | 35.8 | – | –
CCOC(=O)COc1cc(NS(=O)(=O)c2ccc(NC(C)=O)cc2)c2[nH]c3ccccc3c2c1 | 18.2 | – | – | – | 27.4 | – | –

Now from value to molecule, other results behind:

inhibition (Homo sapiens [1]) [%] | IC50 (A-375) [µM] | IC50 (A549) [µM] | IC50 (HL-60) [µM] | SMILES | inhibition (Sf21 [2]) [%] | IC50 (HEK293) [µM] | further results
27.9 | – | – | – | Cc1ccc(S(=O)(=O)Nc2cc(OCC(N)=O)cc3c2[nH]c2ccccc23)cc1 | 41.9 | – | –
28.9 | 70.7 | 70.7 | > 100 | CCOC(=O)COc1cc(NS(=O)(=O)c2ccc(C)cc2)c2[nH]c3ccccc3c2c1 | 56.6 | > 100 | –
45.1 | – | – | – | Cc1ccc(S(=O)(=O)Nc2cc(OCc3nnn[nH]3)cc3c2[nH]c2ccccc23)cc1 | 46.8 | – | –
37.8 | – | – | – | Cc1ccc(S(=O)(=O)Nc2cc(OCc3nc(C)no3)cc3c2[nH]c2ccccc23)cc1 | 38.2 | – | –
21.4 | > 100 | > 100 | > 100 | Cc1ccc(S(=O)(=O)Nc2cc(SCC(=O)O)cc3c2[nH]c2ccccc23)cc1 | 67.2 | > 100 | –
21.5 | > 100 | > 100 | > 100 | Cc1ccc(S(=O)(=O)Nc2cc(OCC(=O)O)cc3c2[nH]c2ccccc23)cc1 | 65.8 | > 100 | IC50 [8]: 12.1 µM; IC50 [9]: 13.2 µM
39.2 | – | – | – | CCOC(=O)CSc1cc(NS(=O)(=O)c2ccc(C)cc2)c2[nH]c3ccccc3c2c1 | 45.2 | – | –
35.5 | – | – | – | Cc1ccc(S(=O)(=O)Nc2cc(S(=O)(=O)CC(=O)O)cc3c2[nH]c2ccccc23)cc1 | 45 | – | –
21.4 | – | – | – | Cc1ccc(S(=O)(=O)Nc2cc(OCc3nnc(N)o3)cc3c2[nH]c2ccccc23)cc1 | 33 | – | –
25.8 | – | – | – | Cc1ccc(S(=O)(=O)Nc2cc(OCc3nnc(C)o3)cc3c2[nH]c2ccccc23)cc1 | 48.6 | – | –
20.6 | 43.7 | > 100 | > 100 | CC(=O)Nc1ccc(S(=O)(=O)Nc2cc(OCc3nnc(C)o3)cc3c2[nH]c2ccccc23)cc1 | 50.7 | > 100 | –
